Source: ChEMBL document CHEMBL2331401, “Orally active fumagillin analogues: transformations of a reactive warhead in the gastric environment” (ACS Med Chem Lett, 2013)
Activity calls are given as the source filed them. The calls are words filed in the database; no cut-off is given here.

How the values were obtained:
HUVEC = experiment: Antiproliferative activity against human HUVEC cells after 3 days; format: functional, cell-based; conditions: 72 h
Rattus norvegicus [1] = experiment: Inhibition of MetAP2 in Sprague-Dawley rat assessed as free MetAP2 level in whole blood at 3 mg/kg, po after 2 to 4 hrs by ELISA relative to vehicle-treated control; format: functional, organism-based; set-up: dose 3 mg/kg
Rattus norvegicus [2] = experiment: Inhibition of MetAP2 in Sprague-Dawley rat assessed as free MetAP2 level in liver at 3 mg/kg, po after 24 hrs by ELISA relative to vehicle-treated control; format: functional, organism-based; set-up: dose 3 mg/kg
[3] = molecular target: Methionine aminopeptidase 2 (Homo sapiens) (UniProt P50579); experiment: Inhibition of MetAP2 (unknown origin) using Met-AMC as substrate assessed as residual activity at 200 nM after 8 hrs
Methionine aminopeptidase 2 (Homo sapiens), sequence (P50579 2-478 limits assumed): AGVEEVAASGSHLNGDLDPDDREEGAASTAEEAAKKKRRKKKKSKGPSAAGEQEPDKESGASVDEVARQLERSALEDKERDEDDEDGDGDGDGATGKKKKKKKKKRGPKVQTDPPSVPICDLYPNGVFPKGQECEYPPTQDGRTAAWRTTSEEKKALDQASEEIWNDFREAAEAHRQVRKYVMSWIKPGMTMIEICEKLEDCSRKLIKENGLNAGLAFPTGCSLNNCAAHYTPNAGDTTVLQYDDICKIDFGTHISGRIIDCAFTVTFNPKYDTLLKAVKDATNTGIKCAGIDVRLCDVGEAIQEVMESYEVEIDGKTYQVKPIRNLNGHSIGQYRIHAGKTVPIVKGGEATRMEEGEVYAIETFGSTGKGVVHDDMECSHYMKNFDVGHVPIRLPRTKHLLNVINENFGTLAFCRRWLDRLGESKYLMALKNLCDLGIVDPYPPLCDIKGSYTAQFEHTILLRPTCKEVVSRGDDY

Rattus norvegicus [4] = experiment: Inhibition of MetAP2 in Sprague-Dawley rat assessed as free MetAP2 level in thymus at 3 mg/kg, po after 24 hrs by ELISA relative to vehicle-treated control; format: functional, organism-based; set-up: dose 3 mg/kg
[5] = Stability of the compound in MES buffer at pH 6.5 after 8 hrs by LC-MS analysis; format: physicochemical; conditions: pH 6.5, 8 h
[6] = molecular target: Methionine aminopeptidase 2 (Homo sapiens) (UniProt P50579); experiment: Inhibition of MetAP2 (unknown origin) using Met-AMC as substrate in MES buffer at pH 6.5 at 200 nM after 8 hrs
Plasma = experiment: Drug metabolism in rat plasma assessed as PPI-2458 formation at 4 degC after 1 hr by HPLC/MS/MS analysis; format: ADME, cell-free
[7] = molecular target: Methionine aminopeptidase 2 (Homo sapiens) (UniProt P50579); experiment: Inhibition of MetAP2 (unknown origin) using Met-AMC as substrate in HEPES buffer at pH 7.5 at 200 nM after 8 hrs

SMILES | Activity [3] | Stability [5] | inhibition [6] | Stability (Plasma) | inhibition [7] | IC50 (HUVEC) | inhibition (Rattus norvegicus [1]) | inhibition (Rattus norvegicus [2]) | inhibition (Rattus norvegicus [4])
C=C([C@H](O)CC=C(C)C)[C@H]1[C@H](OC)[C@H](OC(=O)N[C@@H](C(N)=O)C(C)C)CC[C@]12CO2 | 27% |  |  |  |  | 3.1 nM | Active | Active | Active
CO[C@@H]1[C@H](OC(=O)N[C@@H](C(N)=O)C(C)C)CC[C@]2(O)CO[C@](C)([C@H](O)CC=C(C)C)[C@@H]12 | 107% |  |  |  |  | > 30000 nM | inactive | inactive | inactive
CO[C@@H]1[C@H](OC(=O)N[C@@H](C(N)=O)C(C)C)CC[C@](O)(CCl)[C@H]1[C@@]1(C)O[C@@H]1CC=C(C)C | 6% | Stable | inactive | Unstable | Active | 0.15 nM | Active | Active | Active

Now from value to compound, other results behind:

Activity [3] | Stability [5] | inhibition [6] | Stability (Plasma) | inhibition [7] | SMILES | IC50 (HUVEC) | inhibition (Rattus norvegicus [1]) | inhibition (Rattus norvegicus [2]) | inhibition (Rattus norvegicus [4])
105% |  |  |  |  | CO[C@@H]1[C@H](OC(=O)N[C@@H](C(N)=O)C(C)C)CC[C@@]2(O)CO[C@](C)([C@H](O)CC=C(C)C)[C@@H]12 | > 30000 nM | inactive | inactive | inactive
58% |  |  |  |  | C=C([C@H](O)CC=C(C)C)[C@H]1[C@H](OC)[C@H](OC(=O)N[C@@H](C(N)=O)C(C)C)CC[C@]1(O)CCl | 3.3 nM | Active | Active | Active
3% |  | Active |  | Active | CO[C@H]1[C@@H]([C@@]2(C)O[C@@H]2CC=C(C)C)[C@]2(CC[C@H]1OC(=O)N[C@@H](C(N)=O)C(C)C)CO2 | 0.18 nM | Active | Active | Active
